Active and inactive are the calls of the source. The calls are words filed in the database; no cut-off is given here.
What was measured:
[1] = target: DNA polymerase beta (Rattus norvegicus) (UniProt P06766); experiment: Inhibition of rat DNA polymerase beta-mediated DNA polymerization up to 100 ug/mL after 1 hr
DNA polymerase beta = DNA polymerase beta (Rattus norvegicus, UniProt P06766); experiment: Inhibition of lyase activity of rat DNA polymerase beta after 30 mins
A549 [2] = experiment: Cytotoxicity against human A549 cells at 6 uM after 48 hrs in presence of 0.5 uM blenoxane; format: functional
A549 [3] = experiment: Cytotoxicity against human A549 cells at 6 uM after 48 hrs; format: functional; conditions: A549, 48 h
A549 [4] = experiment: Cytotoxicity against human A549 cells at 0.5 uM after 48 hrs; format: functional, cell-based

| Molecule | Activity [1] | IC50 (DNA polymerase beta) | inhibition (INH) (A549 [2]) | inhibition at 6 µM (A549 [3]) | inhibition (A549 [4]) |
| --- | --- | --- | --- | --- | --- |
| COc1cc2cc(Oc3ccc4ccc(=O)oc4c3)c(=O)oc2cc1O [DAPHNORETIN] | inactive | 122 µM | – | – | – |
| O=c1ccc2ccc(Oc3cc4ccc(O)cc4oc3=O)cc2o1 [EDGEWORIN] | inactive | – | 50.7% | 1.6% | – |
| O=c1ccc2ccc(Oc3cc4cc(O)c(O)cc4oc3=O)cc2o1 [EDGEWORTHIN] | inactive | 94.8 µM | – | – | – |
| BLEOMYCIN SULFATE | – | – | – | – | 35.5% |

— ChEMBL document CHEMBL1148908, “Biscoumarin derivatives from Edgeworthia gardneri that inhibit the lyase activity of DNA polymerase beta” (J Nat Prod, 2004)
